Counter-ions that a name gives are not always drawn. Residues, ends and D or L forms follow the SMILES beside them. *: point of attachment. Cbz = O=C(OCc1ccccc1)*; CH2F = FC*
Experiments:
[1] = test system: human hepatic myofibroblasts; experiment: cells; type: cell-based; conditions: for effect on DNA synthesis / growth / IC50 / maximal reduction of PDGF-BB-stimulated DNA synthesis: 20 ng/ml PDGF-BB; for effect on the antiproliferative effect of THC: pretreatment before THC + PDGF-BB; for IC50: 30 hrs, read-out: half maximal inhibition (IC50) of DNA synthesis; for maximal reduction of PDGF-BB-stimulated DNA synthesis: at 500 nM
CB2 receptors [2] = molecular target: T1, CB2 receptors (Homo sapiens, UniProt P34972); experiment: forskolin-stimulated cAMP levels in CHO overexpressing CB2 receptors; type: cell-based; parameters: host or cells: CHO cells; conditions: CHO overexpressing CB2, 100 nM, 10 min
[3] = test system: human hepatic myofibroblasts; experiment: Cell viability (MTS assay) / cytotoxicity of serum-deprived hepatic myofibroblasts; type: cell-based; conditions: for IC50: 16 hours, MTS assay, read-out: half maximal decrease in cell viability
Procedure: Cell viability. […] CellTiter 96 AQueous One Solution reagent was added to each well and absorbance was recorded at 490 nm.

CB1 receptors = molecular target: T2, CB1 receptors (Homo sapiens, UniProt P21554); type: cell-based
T2 construct: host or cells: CHO cells

caspase-3 = experiment: Caspase-3-like activity on cell lysates; conditions: for effect on caspase-3 activation elicited by THC: pretreatment before THC
cAMP = cAMP levels in human hepatic myofibroblasts; type: cell-based; conditions: not shown
CB2 receptors [4] = molecular target: T1, CB2 receptors; experiment: [35S]GTPγS binding assay, membranes of CHO cells overexpressing CB2 receptors
reactive oxygen species = experiment: Intracellular reactive oxygen species (DCFH-DA fluorescence); type: cell-based, human
CB2 receptors [5] = molecular target: T1, CB2 receptors; experiment: [35S]GTPγS binding assay, membranes of human hepatic myofibroblasts
[6] = test system: human hepatic myofibroblasts; experiment: DNA laddering and DAPI nuclear morphology; type: cell-based
Procedure: (A) Phase-contrast analysis (Magnification ×100). […] (C) Caspase-3-like activity.
Apoptosis assays. […] Nuclear morphology was assayed using DAPI staining.

COX = COX activity (PGE2 released after arachidonic acid); conditions: 1000 nM THC, 8 h
COX-2 = COX-2 protein induction (Western blot); conditions: 8 h

T1 sequence (P34972 whole entry): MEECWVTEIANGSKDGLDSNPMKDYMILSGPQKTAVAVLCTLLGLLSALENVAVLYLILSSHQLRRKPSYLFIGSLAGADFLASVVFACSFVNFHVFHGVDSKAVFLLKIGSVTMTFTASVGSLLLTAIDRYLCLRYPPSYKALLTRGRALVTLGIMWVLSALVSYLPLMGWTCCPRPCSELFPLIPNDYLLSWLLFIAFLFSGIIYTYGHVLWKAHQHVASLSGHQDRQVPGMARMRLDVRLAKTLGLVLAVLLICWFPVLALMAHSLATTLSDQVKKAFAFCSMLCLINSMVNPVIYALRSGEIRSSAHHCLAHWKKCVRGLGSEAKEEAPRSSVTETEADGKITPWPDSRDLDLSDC
T2 sequence (P21554 whole entry): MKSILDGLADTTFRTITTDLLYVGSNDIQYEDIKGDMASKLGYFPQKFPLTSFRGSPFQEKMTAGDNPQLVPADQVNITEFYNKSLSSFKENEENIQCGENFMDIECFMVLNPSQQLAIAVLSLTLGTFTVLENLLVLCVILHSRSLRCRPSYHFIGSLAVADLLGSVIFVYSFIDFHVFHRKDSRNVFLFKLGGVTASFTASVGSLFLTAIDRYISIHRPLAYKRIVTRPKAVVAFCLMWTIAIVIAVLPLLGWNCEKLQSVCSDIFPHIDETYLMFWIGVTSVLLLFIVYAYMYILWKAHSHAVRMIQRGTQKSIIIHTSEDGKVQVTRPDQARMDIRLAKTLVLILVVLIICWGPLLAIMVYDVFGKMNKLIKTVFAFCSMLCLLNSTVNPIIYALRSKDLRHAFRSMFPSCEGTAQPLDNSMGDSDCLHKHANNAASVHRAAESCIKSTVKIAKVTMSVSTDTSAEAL

CCCCC/C=C\C/C=C\C/C=C\C/C=C\CCCC(=O)NCCCl [ACEA, N-(2-Chloroethyl)-5Z,8Z,11Z,14Z-eicosatetraenamide]
effect on DNA synthesis / growth [1]: had no effect | effect on forskolin-stimulated cAMP levels (CB2 receptors [2]): had no effect | cytotoxic / apoptotic effect on hepatic myofibroblasts ([3]; serum-deprived cells): not cytotoxic | effect on forskolin-stimulated cAMP levels (CB1 receptors): reduced

CCCCCCC(C)(C)c1ccc([C@@H]2C[C@H](O)CC[C@H]2CCCO)c(O)c1 [CP 55940, (−)-cis-3-[2-Hydroxy-4-(1,1-dimethylheptyl)phenyl]-trans-4-(3-hydroxypropyl)cyclohexanol]
cytotoxic / apoptotic effect on hepatic myofibroblasts ([3]; serum-deprived cells): cytotoxic

[Cl-].[Mn+3].[O-]c1ccccc1C=NCCN=Cc1ccccc1[O-] [EUK 8]
effect on the antiproliferative effect of THC [1]: did not affect | effect on caspase-3 activation elicited by THC (caspase-3): blunted

CCCCCCC(C)(C)c1cc(O)c2c(c1)OC(C)(C)[C@@H]1CC=C(CO)C[C@@H]21 [HU-210, (6aR)-trans-3-(1,1-Dimethylheptyl)-6a,7,10,10a-tetrahydro-1-hydroxy-6,6-dimethyl-6H-dibenzo[b,d]pyran-9-methanol]
cytotoxic / apoptotic effect on hepatic myofibroblasts ([3]; serum-deprived cells): cytotoxic

CCCn1c(C)c(C(=O)c2cccc3ccccc23)c2ccccc21 [JWH-015, (2-Methyl-1-propyl-1H-indol-3-yl)-1-naphthalenylmethanone]
effect on DNA synthesis / growth [1]: reproduced | IC50 [1]: 150 nM | maximal reduction of PDGF-BB-stimulated DNA synthesis [1]: 60% | cytotoxic / apoptotic effect on hepatic myofibroblasts ([3]; serum-deprived cells): apoptotic | IC50 ([3]; serum-deprived cells): 1000 nM | cytotoxic / apoptotic effect on hepatic myofibroblasts ([3]; serum-deprived cells, listed as JW-015): reproduced

CC(=O)N[C@@H](CS)C(=O)O [NAC, N-Acetyl Cysteine]
effect on the antiproliferative effect of THC [1]: did not affect | effect on caspase-3 activation elicited by THC (caspase-3): blunted

CS(=O)(=O)Nc1ccc([N+](=O)[O-])cc1OC1CCCCC1 [NS-398, N-(2-cyclohexyloxy-4-nitrophenyl)methane sulfonamide]
effect on the antiproliferative effect of THC [1]: reduced | effect on the antiproliferative effect of THC ([1]; listed as NS 398): blunted | effect on caspase-3 activation elicited by THC (caspase-3): did not affect | effect on cytotoxic effect / cell death triggered by THC ([3]; pretreatment before THC): did not affect

Cc1c(C(=O)NN2CCCCC2)nn(-c2ccc(Cl)cc2Cl)c1-c1ccc(Cl)cc1 [SR 141716, N-pipéridino-5-(4-chlorophényl)-1-(2,4-dichlorophényl)-4-méthylpyrazole-3-carboxamide]
effect on apoptosis elicited by HU-210 [3]: had no effect

[2H]C([2H])([2H])CCCCc1cc(O)c2c(c1)OC(C)(C)C1CCC(C)=CC21 (stereo not drawn) [THC, 6a,7,8,10a-Tetrahydro-6,6,9-trimethyl-3-(pentyl-5,5,5-d3)-6H-dibenzo(b,d)pyran-1-ol]
cAMP levels in response to compound (cAMP): not raised | concentration giving maximal activation of [35S]GTPγS binding (CB2 receptors [4]): 10 nM | time to ROS production after exposure (reactive oxygen species): ≤ 20 min | increase in production of intracellular reactive oxygen species (reactive oxygen species; 3 μM THC): 1.5 fold | IC50 ([1]; Homo sapiens): 200 nM | maximal reduction of PDGF-BB-stimulated DNA synthesis [1]: 50% | concentration giving maximal effect on [35S]GTPγS binding (CB2 receptors [5]): 100 nM | DNA laddering on agarose gel electrophoresis ([6]; 4 μM THC): dramatic DNA laddering | nuclear morphology (DAPI staining) ([6]; 4 μM THC): condensed nuclei | time of peak caspase-3 activity (caspase-3): 4 to 6 h | maximal increase of caspase-3 activity (caspase-3; 4 μM THC, 5 hr (FIG. 6C)): 6.3±2 fold | maximal increase in caspase-3 activity (caspase-3; time course, peak after 4-6 hr): 6.7 fold | IC50 ([3]; Homo sapiens, serum-deprived cells): 1500 nM | concentration giving maximal decrease in cell survival ([3]; serum-deprived cells): 2 µM | cytotoxic / apoptotic effect on hepatic myofibroblasts ([3]; serum-deprived cells): cytotoxic effects | COX activity (COX): stimulates COX activity | induction of COX-2 (COX-2): strong induction

Cc1c(C(=O)c2cccc3ccccc23)c2cccc3c2n1[C@H](CN1CCOCC1)CO3 [WIN-55.212-2, (R)-(+)-[2,3-Dihydro-5-methyl-3-(4-morpholinylmethyl)pyrrolo[1,2,3-de]-1,4-benzoxazin-6-yl]-1-naphthalenylmethanone mesylate]
cytotoxic / apoptotic effect on hepatic myofibroblasts ([3]; serum-deprived cells): cytotoxic

COC(=O)CC(NC(=O)C(C)NC(=O)C(NC(=O)OCc1ccccc1)C(C)C)C(=O)CF (stereo not drawn) [ZVAD-fmk, Z-val-Ala-Asp (OCH3)-Fluoromethyl ketone] (Cbz-Val-Ala-Asp(OMe)-CH2F; configuration not given here)
effect on THC-induced DNA laddering ([6]; 50 μM ZVAD): blocked | effect on caspase-3 activation elicited by THC (caspase-3): totally blunted

CCCCC/C=C\C/C=C\C/C=C\C/C=C\CCCC(=O)NCCO [anandamide, N-(2-Hydroxyethyl)-5Z,8Z,11Z,14Z-eicosatetraenamide]
cytotoxic / apoptotic effect on hepatic myofibroblasts ([3]; serum-deprived cells): cytotoxic

C=C(C)[C@@H]1CCC(C)=C[C@H]1c1c(O)cc(CCCCC)cc1O [cannabidiol]
effect on DNA synthesis / growth [1]: reproduced | cytotoxic / apoptotic effect on hepatic myofibroblasts ([3]; serum-deprived cells): reproduced

CC(C)Cc1ccc(C(C)C(=O)O)cc1 (stereo not drawn) [ibuprofen]
effect on the antiproliferative effect of THC [1]: blunted | effect on caspase-3 activation elicited by THC (caspase-3): did not affect

N-[1S)-endo-1,3,3,-trimethyl bicyclo[2.2.1]heptan-2-yl]-5-(choloro-3-methylphenyl)-1-(4-methyl-benzyl)-pyrazole-3-carboxamide [SR 144528]
effect on the antiproliferative effect of THC [1]: strongly reduced | effect on caspase-3 activation elicited by THC (caspase-3): no activation of caspase-3 | effect of compound alone on caspase-3-like activity (caspase-3; without THC): had no effect | effect on apoptosis elicited by HU-210 [3]: prevented | effect of compound alone on cell viability ([3]; without THC): had no effect
